Experimental data reported in patent US12227490B2, “Cereblon binding compounds, compositions thereof, and methods of treatment therewith” (Celgene Corporation, priority 2020, dated 2025).
Structures can show the parent of a compound that is named as a salt.

Molecular target: T1, AR (androgen receptor) protein in VCaP cells (Homo sapiens, UniProt P10275)
T1 construct: endogenous in cells; host or cells: VCaP cells
T1 sequence (P10275 1-920): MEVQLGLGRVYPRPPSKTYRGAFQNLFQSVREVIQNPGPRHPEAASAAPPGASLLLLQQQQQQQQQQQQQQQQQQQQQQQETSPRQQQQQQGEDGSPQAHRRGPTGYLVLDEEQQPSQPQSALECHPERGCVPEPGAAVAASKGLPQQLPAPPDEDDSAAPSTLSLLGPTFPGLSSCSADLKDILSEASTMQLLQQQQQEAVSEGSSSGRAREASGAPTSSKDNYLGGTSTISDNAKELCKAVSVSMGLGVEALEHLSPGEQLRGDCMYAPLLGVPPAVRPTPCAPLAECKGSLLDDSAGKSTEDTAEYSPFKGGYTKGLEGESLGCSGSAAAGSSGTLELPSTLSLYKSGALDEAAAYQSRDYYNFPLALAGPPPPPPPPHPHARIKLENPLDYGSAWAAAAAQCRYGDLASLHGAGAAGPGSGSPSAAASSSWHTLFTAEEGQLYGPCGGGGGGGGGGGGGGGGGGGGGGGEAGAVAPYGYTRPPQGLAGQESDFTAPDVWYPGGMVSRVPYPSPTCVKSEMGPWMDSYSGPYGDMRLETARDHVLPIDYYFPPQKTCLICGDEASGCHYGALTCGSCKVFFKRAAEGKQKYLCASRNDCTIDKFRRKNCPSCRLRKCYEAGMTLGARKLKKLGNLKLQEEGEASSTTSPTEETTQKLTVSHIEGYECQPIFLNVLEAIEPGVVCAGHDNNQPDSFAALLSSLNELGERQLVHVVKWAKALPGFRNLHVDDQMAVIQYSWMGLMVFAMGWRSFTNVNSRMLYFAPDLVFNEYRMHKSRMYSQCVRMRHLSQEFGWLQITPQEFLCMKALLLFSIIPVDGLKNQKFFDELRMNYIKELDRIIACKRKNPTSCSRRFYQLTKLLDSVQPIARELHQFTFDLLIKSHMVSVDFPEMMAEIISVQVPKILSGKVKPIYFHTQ
Experiment: VCAP AR Degradation Assay
Format: cell-based
Settings: 24 h, AR ELISA; for DC50: concentration of compound when AR level = 50% of DMSO control; for remaining activity at up to 5 µM: top concentration 5 μM, read-out: Y (lowest measured AR level normalized to DMSO control, AR degradation efficiency)
Method: VCAP AR Degradation Assay. Test compounds were pre-dispensed into a Corning CellBind 96-well clear bottom plate (Cat #3300) using an acoustic dispenser to make a 10-point concentration series at 1:3 dilution for each compound. The final top concentration of each compound was 5 μM. DMSO at a final concentration of 0.1% was used as a control. VCaP cells cultured in DMEM with 8% fetal bovine serum (FBS) were seeded at 50K cells per well in a 200 μL volume into the compound plate and incubated at 37° C. in a CO2 incubator for 24 h. The medium was carefully removed from the cells and the plate was placed on ice. One hundred μL of ice-cold 1× cell lysis buffer from Cell Signaling Technologies (Cat #9803) was added to each well of the cells and the plate was incubated at 4° C. on a shaker for 1 h. Fifteen μL of cell lysate was used for AR ELISA detection using a PathScan Total Sandwich AR ELISA kit (Cell Signaling Technology, Cat #12580). AR levels in compound-treated wells were normalized to that of DMSO control and expressed as percent of control (PoC) (y). A Four Parameter Logistic Model (Sigmoidal Dose-Response Model) was used to determine the compound's DC50, and EC50, using the following equation: y=(A+((B−A)/(1+((C/x)^D)))) • A=YMin (lowest AR level normalized to DMSO control in response to compound treatment, as determined by curve fit) • B=YMax (maximum AR level as determined by curve fit) • C=EC50 • D=Hill Slope • x=compound concentration • EC50=the concentration of compound when y=(YMax−YMin)/2 • DC50=the concentration of the compound when y=50% of DMSO control (50% AR degradation) • y=AR protein level normalized to DMSO control
The lowest measured AR level normalized to DMSO control in response to compound treatment, termed Y value, was used to characterize the compound-mediated AR degradation efficiency.

SMILES	DC50	remaining activity at up to 5 µM
C[C@@H]1CN(CCO[C@H]2CC[C@H](N3C(=S)N(c4ccc(C#N)c(Cl)c4)C(=O)C3(C)C)CC2)C[C@H](C)N1CC(=O)Nc1cccc2c(C3CCC(=O)NC3=O)nn(C)c12 (stereo partly drawn) [Cmpd 3, 2-((2R,6S)-4-(2-((trans-4-(3-(3-Chloro-4-cyanophenyl)-5,5-dimethyl-4-oxo-2-thioxoimidazolidin-1-yl)cyclohexyl)oxy)ethyl)-2,6-dimethylpiperazin-1-yl)-N-(3-(2,6-dioxopiperidin-3-yl)-1-methyl-1H-indazol-7-yl)acetamide hydrochloride]	< 2 nM	0 to 25%
C[C@@H]1CN(CCO[C@H]2CC[C@H](N3C(=S)N(c4cnc(C#N)c(Cl)c4)C(=O)C3(C)C)CC2)C[C@H](C)N1CC(=O)Nc1cccc2c(C3CCC(=O)NC3=O)nn(C)c12 (stereo partly drawn) [Cmpd 6, 2-((2R,6S)-4-(2-((trans-4-(3-(5-Chloro-6-cyanopyridin-3-yl)-5,5-dimethyl-4-oxo-2-thioxoimidazolidin-1-yl)cyclohexyl)oxy)ethyl)-2,6-dimethylpiperazin-1-yl)-N-(3-(2,6-dioxopiperidin-3-yl)-1-methyl-1H-indazol-7-yl)acetamide hydrochloride]	< 2 nM	0 to 25%
Cn1nc(C2CCC(=O)NC2=O)c2cccc(NC(=O)CN3CCN(CCCO[C@H]4CC[C@H](N5C(=S)N(c6ccc(C#N)c(C(F)(F)F)c6)C(=O)C5(C)C)CC4)C[C@@H]3C(F)(F)F)c21 (stereo partly drawn) [Cmpd 21, 2-((R)-4-(3-(((trans)-4-(3-(4-Cyano-3-(trifluoromethyl)phenyl)-5,5-dimethyl-4-oxo-2-thioxoimidazolidin-1-yl)cyclohexyl)oxy)propyl)-2-(trifluoromethyl)piperazin-1-yl)-N-(3-(2,6-dioxopiperidin-3-yl)-1-methyl-1H-indazol-7-yl)acetamide]	< 2 nM	0 to 25%
C[C@@H]1C[C@@H](CCO[C@H]2CC[C@H](N3C(=S)N(c4cnc(C#N)c(C(F)(F)F)c4)C(=O)C3(C)C)CC2)C[C@H](C)N1CC(=O)Nc1cccc2c(C3CCC(=O)NC3=O)nn(C)c12 (stereo partly drawn) [Cmpd 16, 2-((2R,4s,6S)-4-(2-(((trans)-4-(3-(6-Cyano-5-(trifluoromethyl)pyridin-3-yl)-5,5-dimethyl-4-oxo-2-thioxoimidazolidin-1-yl)cyclohexyl)oxy)ethyl)-2,6-dimethylpiperidin-1-yl)-N-(3-(2,6-dioxopiperidin-3-yl)-1-methyl-1H-indazol-7-yl)acetamide]	< 2 nM	0 to 25%
C[C@@H]1CN(CCCO[C@H]2CC[C@H](N3C(=S)N(c4cnc(C#N)c(C(F)(F)F)c4)C(=O)C3(C)C)CC2)C[C@H](C)N1CC(=O)Nc1cccc2c(C3CCC(=O)NC3=O)nn(C)c12 (stereo partly drawn) [Cmpd 7, 2-((2R,6S)-4-(3-((trans-4-(3-(6-Cyano-5-(trifluoromethyl)pyridin-3-yl)-5,5-dimethyl-4-oxo-2-thioxoimidazolidin-1-yl)cyclohexyl)oxy)propyl)-2,6-dimethylpiperazin-1-yl)-N-(3-(2,6-dioxopiperidin-3-yl)-1-methyl-1H-indazol-7-yl)acetamide hydrochloride]	< 2 nM	0 to 25%
C[C@@H]1CN(CCCO[C@H]2CC[C@H](N3C(=S)N(c4ccc(C#N)c(Cl)c4)C(=O)C3(C)C)CC2)C[C@H](C)N1CC(=O)Nc1cccc2c(C3CCC(=O)NC3=O)nn(C)c12 (stereo partly drawn) [Cmpd 5, 2-((2R,6S)-4-(3-((trans-4-(3-(3-Chloro-4-cyanophenyl)-5,5-dimethyl-4-oxo-2-thioxoimidazolidin-1-yl)cyclohexyl)oxy)propyl)-2,6-dimethylpiperazin-1-yl)-N-(3-(2,6-dioxopiperidin-3-yl)-1-methyl-1H-indazol-7-yl)acetamide hydrochloride]	< 2 nM	30 to 50%
C[C@@H]1C[C@H](OCCO[C@H]2CC[C@H](N3C(=S)N(c4ccc(C#N)c(C(F)(F)F)c4)C(=O)C3(C)C)CC2)C[C@H](C)N1CC(=O)Nc1cccc2c(C3CCC(=O)NC3=O)nn(C)c12 (stereo partly drawn) [Cmpd 27, 2-((2R,4r,6S)-4-(2-(((trans)-4-(3-(4-Cyano-3-(trifluoromethyl)phenyl)-5,5-dimethyl-4-oxo-2-thioxoimidazolidin-1-yl)cyclohexyl)oxy)ethoxy)-2,6-dimethylpiperidin-1-yl)-N-(3-(2,6-dioxopiperidin-3-yl)-1-methyl-1H-indazol-7-yl)acetamide]	2 to 5 nM	25 to 30%
Cn1nc(C2CCC(=O)NC2=O)c2cccc(NC(=O)CN3CCN(CCC[C@H]4CC[C@H](N5C(=S)N(c6cnc(C#N)c(C(F)(F)F)c6)C(=O)C5(C)C)CC4)C[C@@H]3C(F)(F)F)c21 (stereo partly drawn) [Cmpd 17, 2-((R)-4-(3-((trans)-4-(3-(6-Cyano-5-(trifluoromethyl)pyridin-3-yl)-5,5-dimethyl-4-oxo-2-thioxoimidazolidin-1-yl)cyclohexyl)propyl)-2-(trifluoromethyl)piperazin-1-yl)-N-(3-(2,6-dioxopiperidin-3-yl)-1-methyl-1H-indazol-7-yl)acetamide]	2 to 5 nM	0 to 25%
Cn1nc(C2CCC(=O)NC2=O)c2cccc(NC(=O)CN3CCN(CCC[C@H]4CC[C@H](N5C(=S)N(c6ccc(C#N)c(C(F)(F)F)c6)C(=O)C5(C)C)CC4)C[C@@H]3C(F)(F)F)c21 (stereo partly drawn) [Cmpd 18, 2-((R)-4-(3-((trans)-4-(3-(4-Cyano-3-(trifluoromethyl)phenyl)-5,5-dimethyl-4-oxo-2-thioxoimidazolidin-1-yl)cyclohexyl)propyl)-2-(trifluoromethyl)piperazin-1-yl)-N-(3-(2,6-dioxopiperidin-3-yl)-1-methyl-1H-indazol-7-yl)acetamide]	5 to 20 nM	25 to 30%
Cn1nc(C2CCC(=O)NC2=O)c2cccc(NC(=O)CN3CCC(CCO[C@H]4CC[C@H](N5C(=S)N(c6cnc(C#N)c(C(F)(F)F)c6)C(=O)C5(C)C)CC4)C(F)(F)C3)c21 (stereo partly drawn) [Cmpd 29, 2-(4-(2-(((trans)-4-(3-(6-Cyano-5-(trifluoromethyl)pyridin-3-yl)-5,5-dimethyl-4-oxo-2-thioxoimidazolidin-1-yl)cyclohexyl)oxy)ethyl)-3,3-difluoropiperidin-1-yl)-N-(3-(2,6-dioxopiperidin-3-yl)-1-methyl-1H-indazol-7-yl)acetamide]	< 2 nM	0 to 25%
C[C@@H]1CN(CCC[C@H]2CC[C@H](N3C(=S)N(c4ccc(C#N)c(Cl)c4)C(=O)C3(C)C)CC2)C[C@H](C)N1CC(=O)Nc1cccc2c(C3CCC(=O)NC3=O)nn(C)c12 (stereo partly drawn) [Cmpd 11, 2-((2S,6R)-4-(3-(trans-4-(3-(3-Chloro-4-cyanophenyl)-5,5-dimethyl-4-oxo-2-thioxoimidazolidin-1-yl)cyclohexyl)propyl)-2,6-dimethylpiperazin-1-yl)-N-(3-(2,6-dioxopiperidin-3-yl)-1-methyl-1H-indazol-7-yl)acetamide]	5 to 20 nM	30 to 50%
C[C@@H]1CN(CCC[C@H]2CC[C@H](N3C(=S)N(c4cnc(C#N)c(C(F)(F)F)c4)C(=O)C3(C)C)CC2)C[C@H](C)N1CC(=O)Nc1cccc2c(C3CCC(=O)NC3=O)nn(C)c12 (stereo partly drawn) [Cmpd 9, 2-((2R,6S)-4-(3-(trans-4-(3-(6-Cyano-5-(trifluoromethyl)pyridin-3-yl)-5,5-dimethyl-4-oxo-2-thioxoimidazolidin-1-yl)cyclohexyl)propyl)-2,6-dimethylpiperazin-1-yl)-N-(3-(2,6-dioxopiperidin-3-yl)-1-methyl-1H-indazol-7-yl)acetamide]	2 to 5 nM	25 to 30%
